Where two headings read alike, the source gives them in different places. Marks after values point to notes of the source that are not given here.
Key:
[1] = test system: retinal ganglion cells and optic nerve axons; experiment: In vivo retinal ganglion cell and optic nerve axon tests after optic nerve transection; conditions: for Efficacy in protecting retinal ganglion cell axons from degeneration following optic nerve transection: Table V; for RGC Counts (mean density of Fluoro-gold labeled retinal ganglion cells in 400 μm × 400 μm fields): 10 mg/kg/day sc;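 for all read-outs here: adult male Sprague Dawley rats with bilateral intraorbital optic nerve transection after retrograde fluorogold labeling of retinal ganglion cells, examined on fixed retinas and optic nerve stumps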
Protocol: The extent of degeneration reduction or prevention in retinal ganglion cells and optic nerve axons was determined in a vision loss model utilizing surgical optic nerve transection to simulate mechanical damage to the optic nerve. The effects of several neuroimmunophilin FKBP ligands on retinal ganglion cells neuroprotection and optic nerve axon density was determined experimentally, comparing 14 day and 28 day neuroimmunophilin FKBP ligand treatments.
Retinal ganglion cells were pre-labeled by bilateral stereotaxic injection of the fluorescent retrogradely transported marker fluoro-gold (FG, 0.5 microliters of 2.5% solution in saline) at the coordinates of the LGNd (4.5 millimeters post β, 3.5 millimeters lateral, 4.6 millimeters below dura). Four days later, FG labeled rats underwent a second surgery for microsurgical bilateral intraorbital optic nerve transection 4-5 millimeters behind the orbit.
Experimental animals were divided into six experimental groups of six rats (12 eyes) per group. […] A second group received the same neuroimmunophilin FKBP ligand dose for 28 days.
All animals were sacrificed 90 days after optic nerve transection and perfused pericardially with formalin. All eyes and optic nerves stumps were removed. Cases were excluded from the study if the optic nerve vasculature was damaged or if FG labeling was absent in the retina.
Retinas were removed from eyes and prepared for wholemount analysis. For each group, five eyes with dense and intense FG labeling were selected for quantitative analysis using a 20 power objective. Digital images were obtained from five fields in the central retina (3-4 millimeters radial to optic nerve head).
Proximal and distal optic nerve stumps were identified, measured, and transferred to 30% sucrose saline. […] Sections including the region 1-2 mm behind the orbit were reacted for RT97 neurofilament immunohistochemistry. Analysis of optic nerve axon density was performed using a 63 power oil immersion lens, a Dage 81 camera, and the Simple Image Analysis program. RT97 positive optic nerve axons were counted in three 200 μm by 200 μm fields per nerve. The area of the nerve was also determined for each case at 10 power.

[2] = molecular target: FKBP12 (Homo sapiens, UniProt P62942); experiment: Inhibition of FKBP peptidyl-prolyl isomerase (rotamase) activity, apparent Ki; assay type: biochemical
Excerpt: The inhibition of the prolyl peptidyl cis-trans isomerase activity of FKBP may be measured as an indicator of this affinity.
These values are obtained as apparent Ki's.
The cis-trans isomerization of an alanine-proline bond in a model substrate, N-succinyl-Ala-Ala-Pro-Phe-p-nitroanilide, is monitored spectrophotometrically in a chymotrypsin-coupled assay, which releases para-nitroanilide from the trans form of the substrate. The inhibition of this reaction caused by the addition of different concentrations of inhibitor is determined, and the data is analyzed as a change in first-order rate constant as a function of inhibitor concentration to yield the apparent Ki values.
In a plastic cuvette are added 950 mL of ice cold assay buffer (25 mM HEPES, pH 7.8, 100 mM NaCl), 10 mL of FKBP (2.5 mM in 10 mM Tris-Cl pH 7.5, 100 mM NaCl, 1 mM dithiothreitol), 25 mL of chymotrypsin (50 mg/ml in 1 mM HCl) and 10 mL of test compound at various concentrations in dimethyl sulfoxide. The reaction is initiated by the addition of 5 mL of substrate (succinyl-Ala-Phe-Pro-Phe-para-nitroanilide, 5 mg/mL in 2.35 mM LiCl in trifluoroethanol).
The absorbance at 390 nm versus time is monitored for 90 seconds using a spectrophotometer and the rate constants are determined from the absorbance versus time data files.

[3] = Clearance (Table V comments, no method given); assay type: in vitro ADME
[4] = test system: retinal ganglion cells; experiment: Retinal ischemia: degeneration of retinal ganglion cells, optic nerve axons and myelin; assay type: in vivo, rat; conditions: 10 mg/kg s.c. 1 hour prior to ischemia and 10 mg/kg/day for next four days, 28 days after ischemia
Excerpt: Retinal ganglion cells were retrogradely labeled in adult rats by bilateral injection of fluorogold in their lateral geniculate nuclei. Labeled ganglion cells in the normal rat retina appear as white profiles against the dark background (FIG. 1A). Complete retinal ischemia was produced by infusing normal saline solution into the retinal vitreous cavity of each eye until the intraocular pressure exceeded arterial blood pressure. 28 days after the ischemic episode extensive degeneration of retinal ganglion cell was evidenced by massive reduction in the density of fluorogold labeled cells (FIG. 1B).

[5] = test system: aged mice; experiment: Morris watermaze spatial learning and memory in aged rodents; assay type: in vivo; conditions: aged impaired mice, 10 mg/kg daily, retention testing after 3 weeks of dosing
Excerpt: The Morris watermaze is widely used for assessing spatial memory formation and retention in experimental animals. The test depends on the animals ability to utilize spatial visual information in order to locate a submerged escape platform in a water tank. It is important that the tank itself be as devoid of specific visual features as possible—thus, it is always circular in shape, the sides are kept smooth and in uniform dull colors, and the water is rendered opaque with nontoxic watercolor pigment or powdered milk. This is to ensure that the animal navigates only by the use of more distant visual cues, or by the use of intra-maze cues specifically provided by the experimenter. The animals' path, speed, and swim time are tracked with a ceiling camera for later computerized analysis. Over the course of several successive trials, spatial learning can therefore be defined as a drop of distance swum, or time elapsed, from placement in the tank until escape onto the invisible platform. The procedure involved using-three-month old (young) and 18-19 month old male C57BL/6Nia aged) mice which habituated to the well known and conventional Morris watermaze during a 4 trials/day, 3-4 day visible platform training phase. […] Swim Distances (cm) were analyzed in a 7×5 ANOVA including Groups and Blocks (1-5) as factors in the analysis, treating Blocks as a repeated measure.

[6] = ONT, 14 days treatment, 90 days after transection, ± SEM
[7] = ONT, 14 days treatment, 90 days after transection
[8] = ONT, 28 days treatment, 90 days after transection
[9] = ONT, 28 days treatment, 90 days after transection, ± SEM
[10] = Table V comments, read-out: Ki rotomase

Sequence of FKBP12 (P62942 whole entry, species assumed): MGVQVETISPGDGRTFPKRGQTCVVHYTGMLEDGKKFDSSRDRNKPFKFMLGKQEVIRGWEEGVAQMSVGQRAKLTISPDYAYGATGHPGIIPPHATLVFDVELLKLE

SMILES: O=C(SCCCc1ccccc1)C1CCCN1C(=O)NC12CC3CC(CC(C3)C1)C2 (centres unmarked) [B]
- Efficacy in protecting retinal ganglion cell axons from degeneration following optic nerve transection ([1]; ± SEM): 100.0% ± 5.2% SEM

SMILES: O=C(SCCCc1ccccc1)C1CCCN1S(=O)(=O)Cc1ccccc1 (centres unmarked) [C]
- Efficacy in protecting retinal ganglion cell axons from degeneration following optic nerve transection ([1]; ± SEM): 60.4% ± 3.1 SEM

SMILES: CCC(C)(C)C(=O)C(=O)N1CCC[C@H]1C(=O)OCCCc1ccc[n+]([O-])c1 [Compound 1, 3-(3-Pyridyl)-1-propyl(2S)-1-(1,1-Dimethyl-1,2-dioxopentyl)-2-pyrrolidine-carboxylate, N-oxide]
- Ki ([2]; Table B, rotamase inhibition, read-out: Ki): 0.225 µM

SMILES: CCC(C)(C)C(=O)C(=O)N1CCCCC1C(=O)SCCC(c1ccccc1)c1ccccc1 (centres unmarked) [Compound K]
- Efficacy in protecting retinal ganglion cell axons from degeneration following optic nerve transection ([1]; ± SEM): 13.0% ± 4.2% SEM
- Clearance [3]: 4.5 µL/min

SMILES: CCC(C)(C)C(=O)C(=O)N1CCCCC1C(=O)OC(CCc1ccccc1)CCc1ccccc1 (centres unmarked) [E]
- Clearance ([3]; unit printed μl/ml): 41.8 μl/ml

SMILES: CCC(C)(C)C(=O)C(=O)N1CCC[C@H]1C(=O)OCCCc1cccnc1 [GPI 1046]
- protection of fluorogold labeled retinal ganglion cells [4]: noticeable protection of a large proportion of the vulnerable ganglion cell population
- spatial memory performance (swim distance) in retention testing [5]: significantly enhanced spatial memory performance
- preservation of axons of protected neurons in the proximal stump ([1]; Example 13, 10 mg/kg/day s.c. for 28 days, 90 days after transection): preserved the axons of virtually all protected neurons
- perikaryal neuroprotection: ganglion cell population spared ([1]; Example 13, 10 mg/kg/day s.c. for 28 days, sacrificed 90 days after transection): 25%
- RGC Counts (mean density of Fluoro-gold labeled retinal ganglion cells in 400 μm × 400 μm fields) [1, 6]: small but not significant increase
- Distal optic nerve myelin basic protein Density, loss [1, 7]: slightly increase the density of myelin
- Distal optic nerve stump shrinkage (cross sectional area vs sham) [1, 7]: did not protect against shrinkage of the distal stump
- ON axon Count (axonal density multiplied by ON area) [1, 7]: 6820
- increased ON axon density (adjusted for optic nerve diameter) [1, 7]: 1.5×
- ON Axon density (RT97 labeled optic nerve axons in 200 μm × 200 μm region) [1, 6]: 569 ± 23
- Proximal optic nerve myelin basic protein Density, % recovery [1, 6]: 1.6 ± 3.0 SEM % recovery
- RGC Counts (mean density of Fluoro-gold labeled retinal ganglion cells in 400 μm × 400 μm fields) ([1]; ONT, 28 days treatment, 90 days after transection, SEM): 67.9 ± 5.8
- Distal optic nerve stump, less shrinkage [1, 8]: prevented cross sectional shrinkage of the distal stump
- ON axon Count (axonal density multiplied by ON area) [1, 8]: 22,861*
- increased ON axon density (adjusted for optic nerve diameter) [1, 8]: 5.0×
- ON Axon density (RT97 labeled optic nerve axons in 200 μm × 200 μm region) [1, 9]: significant increase
- Proximal optic nerve myelin basic protein Density, % recovery [1, 9]: 70 ± 6.3 SEM % recovery
- Efficacy in protecting retinal ganglion cell axons from degeneration following optic nerve transection ([1]; ± SEM): 60.5% ± 3.9 SEM
- Clearance [3]: 63.8 µL/min

SMILES: CCC(C)(C)C(=O)C(=O)N1CCCCC1C(=O)O (centres unmarked) [G]
- Efficacy in protecting retinal ganglion cell axons from degeneration following optic nerve transection ([1]; ± SEM): 34.0% ± 4.8% SEM
- Ki [2, 10]: > 10 µM

SMILES: CCC(C)(C)C(=O)C(=O)N1CCCCC1C(N)=O (centres unmarked) [H]
- Efficacy in protecting retinal ganglion cell axons from degeneration following optic nerve transection ([1]; ± SEM): 30.3% ± 8.0% SEM

SMILES: O=C(OCCCc1cccnc1)[C@@H]1CCCN1C(=S)NC1CCCCC1 [I]
- Efficacy in protecting retinal ganglion cell axons from degeneration following optic nerve transection ([1]; ± SEM): 23.8% ± 5.3 SEM

SMILES: CCC(C)(C)C(=O)C(=O)N1CCCC1C(=O)CCCCc1cccnc1 (centres unmarked) [J]
- Efficacy in protecting retinal ganglion cell axons from degeneration following optic nerve transection ([1]; ± SEM): 15.8% ± 4.8% SEM
- Clearance [3]: 1.5 µL/min

SMILES: CCC(C)(C)C(=O)C(=O)N1CCCC1C(=O)O (centres unmarked) [L]
- Efficacy in protecting retinal ganglion cell axons from degeneration following optic nerve transection ([1]; ± SEM): 7.8% ± 3.0% SEM
- Ki [2, 10]: > 7.74 µM

SMILES: CCC(C)(C)C(=O)C(=O)N1CCC[C@H]1C(=O)SCCC(c1ccccc1)c1ccccc1 [M]
- Efficacy in protecting retinal ganglion cell axons from degeneration following optic nerve transection ([1]; ± SEM): −6.3% + 3.9% SEM

SMILES: CN(C)C(=O)N1CCCC1C(=O)SCCCc1ccccc1 (centres unmarked) [N]
- Clearance ([3]; unit printed μl/ml): 21.9 μl/ml
